# Columns and labels:
# CYP3A4 [1] = target: T1, CYP3A4 (Homo sapiens, UniProt P08684); assay: Two-step luminescent P450 assay with luciferin derivatives, recombinant enzyme panel screen; format: biochemical; parameters: purchased Discovery Labware (Supersomes™); host or cells: insect cell expression system; settings: for signal/background (S/B) ratio: CYP3A4 vs minus P450 control, 50 μM substrate, 1 pmole P450, 30 minutes at 37° C. (FIG. 2)
# Protocol: (§1) For assays using recombinant P450 enzymes, a two-step scheme was followed whereby a luciferin derivative is oxidized by a P450 enzyme in a first step. In the second step, LDR is added to the P450 reaction mixture to stop the P450 activity and initiate a glow-style luciferase reaction whereby the luminescent signal strength is dependent on the amount of luciferin derivative oxidized by a P450 enzyme in the first step.
# (§2) Reaction buffers for the P450 enzyme reaction of the first step varied depending on the P450 enzyme used. […] Unless otherwise indicated, the following buffer/enzyme combinations were used: 100 mM KPO4, pH 7.4 for CYP1A1, 1A2, 1B1, 2D6, 2E1, 3A5, 3A7, 2J2, 4F12, 19, and control samples; 50 mM KPO4, pH 7.4 for CYP2B6, 2C8, 2C19, 4F2, 4F3A, 4F3B; 25 mM KPO4, pH 7.4 for CYP2C9; 200 mM KPO4, pH 7.4 for CYP3A4; 100 mM TrisHCl, pH 7.5 for CYP2A6, 2C18, 4A11.
# (§3) In FIG. 2 and FIGS. 8-19, luciferin derivatives were screened against a panel of recombinant human cytochrome P450 enzyme and control microsomes (Supersomes™). Concentrated stock solutions of the proluciferin acetal compounds were prepared as follows: 50 mM 3320, 3357, 3364, 3366 and 3391 in acetonitrile; 50 mM 3359, 3365, 3397 and 3403 in dimethyl sulfoxide (DMSO); 50 mM 3377 in H2O; 10 mM 3363 in H2O. Luciferin-PPXE, luciferin-PFBE and luciferin-BE were provided as a 50 mM solution in DMSO, 2 mM solution in 25 mM Tris, pH 8 and a 5 mM solution in 100 mM KPO4, pH 7.4, respectively. Assays were performed in opaque, white, polystyrene, flat-bottom 96-well plates.
# (§4) In FIG. 20 using compound 3391, the method used in FIGS. 2 and 8-19 was used with the following changes: 0.1 picomole of each P450 enzyme or an equivalent volume of control membranes was used per reaction; for all reactions, 2 μM compound 3391 was used, 100 mM KPO4, pH 7.4 was used as the P450 reaction buffer, and the reaction was incubated for 10 minutes at 37° C.
# (§5) Briefly, in a first step a proluciferin acetal of the present invention is oxidized initially by a P450 enzyme. The oxidized product is then thought to undergo a non-enzymatic conversion to a proluciferin ester. In a second step, the proluciferin ester is detected by adding a luciferase reaction mixture containing an esterase enzyme that converts the proluciferin ester to luciferin. The luciferin reacts with luciferase to produce an amount of light that is proportional to the amount of luciferin, and therefore to the amount of P450 enzyme activity. A sample that contains active P450 enzyme is typically compared to a control that is devoid of P450 activity.
# CYP3A4 [2] = target: T1, CYP3A4; settings: non-acetal CYP3A4 substrates, Cali et al. 2006; cited from earlier work
# CYP3A7 = target: T2, CYP3A7 (Homo sapiens, UniProt P24462); assay: Two-step luminescent P450 assay, recombinant enzyme panel screen; format: biochemical; settings: FIG. 20 conditions: 2 μM compound, 0.1 picomole P450, 100 mM KPO4 pH 7.4, 10 minutes at 37° C.
# T2 construct: purchased Discovery Labware (Supersomes™); host or cells: insect cell expression system
# T2 sequence (P24462 whole entry): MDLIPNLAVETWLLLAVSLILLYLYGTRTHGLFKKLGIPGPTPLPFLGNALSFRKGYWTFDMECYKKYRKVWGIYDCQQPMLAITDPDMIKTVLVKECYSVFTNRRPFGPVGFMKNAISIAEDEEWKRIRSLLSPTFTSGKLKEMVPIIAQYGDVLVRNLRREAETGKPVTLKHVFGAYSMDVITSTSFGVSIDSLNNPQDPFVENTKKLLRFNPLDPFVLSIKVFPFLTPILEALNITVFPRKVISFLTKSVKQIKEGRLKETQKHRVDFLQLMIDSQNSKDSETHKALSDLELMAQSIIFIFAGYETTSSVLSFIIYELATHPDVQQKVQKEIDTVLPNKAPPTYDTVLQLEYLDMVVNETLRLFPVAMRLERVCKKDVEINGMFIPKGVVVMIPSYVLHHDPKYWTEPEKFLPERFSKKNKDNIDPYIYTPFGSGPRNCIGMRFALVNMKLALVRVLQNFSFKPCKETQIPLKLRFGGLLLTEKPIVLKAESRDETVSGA
# Protocol: as §1, §2, §3, §4, §5
# CYP3A4 versus CYP3A5 = target: T3, CYP3A4 versus CYP3A5 (Homo sapiens, UniProt P20815); assay: as above; format: biochemical; settings: human, recombinant human CYP3A4 and CYP3A5 microsomes (Supersomes), pH 7.4; FIG. 2 conditions: 50 μM compound, 1 pmole P450, 30 minutes; read-out: selectivity for CYP3A4 over CYP3A5
# T3 construct: purchased Discovery Labware (Supersomes™); host or cells: insect cell expression system
# T3 sequence (P20815 whole entry): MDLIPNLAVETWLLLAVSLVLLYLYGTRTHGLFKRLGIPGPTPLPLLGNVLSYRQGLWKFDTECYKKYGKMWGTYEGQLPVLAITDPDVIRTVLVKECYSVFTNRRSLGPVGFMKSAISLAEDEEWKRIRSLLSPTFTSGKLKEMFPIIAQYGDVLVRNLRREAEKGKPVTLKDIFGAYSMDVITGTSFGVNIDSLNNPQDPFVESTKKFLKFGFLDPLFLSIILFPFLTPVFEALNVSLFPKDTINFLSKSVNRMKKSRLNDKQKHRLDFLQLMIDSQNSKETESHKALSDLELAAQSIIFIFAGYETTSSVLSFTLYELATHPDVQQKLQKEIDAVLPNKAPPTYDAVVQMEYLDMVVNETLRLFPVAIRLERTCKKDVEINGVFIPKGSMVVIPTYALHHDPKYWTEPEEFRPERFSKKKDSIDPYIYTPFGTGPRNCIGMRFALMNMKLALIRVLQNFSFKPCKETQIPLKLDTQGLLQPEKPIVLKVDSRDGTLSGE
# Protocol: as §1, §2, §3, §4, §5
# CYP3A5 = target: T4, CYP3A5 (Homo sapiens, UniProt P20815); assay: as above; format: biochemical; settings: FIG. 20 conditions: 2 μM compound, 0.1 picomole P450, 100 mM KPO4 pH 7.4, 10 minutes at 37° C.
# T4 construct: purchased Discovery Labware (Supersomes™); host or cells: insect cell expression system
# T4 sequence (P20815 whole entry): as above
# Protocol: as §1, §2, §3, §4, §5
# CYP3A4 versus CYP3A7 = target: T5, CYP3A4 versus CYP3A7 (Homo sapiens, UniProt P24462); assay: as above; format: biochemical; settings: human, recombinant human CYP3A4 and CYP3A7 microsomes (Supersomes), pH 7.4; FIG. 2 conditions: 50 μM compound, 1 pmole P450, 30 minutes; read-out: selectivity for CYP3A4 over CYP3A7
# T5 construct: purchased Discovery Labware (Supersomes™); host or cells: insect cell expression system
# T5 sequence (P24462 whole entry): as the sequence (P24462 whole entry) above
# Protocol: as §1, §2, §3, §4, §5
# [3] = tested on: panel of 21 recombinant human cytochrome P450 enzymes; assay: as above; format: biochemical
# Protocol: as §1, §2
# In FIG. 2 and FIGS. 8-19, luciferin derivatives were screened against a panel of recombinant human cytochrome P450 enzyme and control microsomes (Supersomes™). […]
# Briefly, in a first step a proluciferin acetal of the present invention is oxidized initially by a P450 enzyme. […] In a second step, the proluciferin ester is detected by adding a luciferase reaction mixture containing an esterase enzyme that converts the proluciferin ester to luciferin. […]
# CYP3A4 [4] = target: T1, CYP3A4; assay: Concentration dependence of the CYP3A4 reaction with compound 3391; format: biochemical; parameters: purchased Discovery Labware (Supersomes™); host or cells: insect cell expression system
# Protocol: The reactions were performed as described for FIGS. 3-6 except no inhibitors were present in the reactions, and the concentration of compound 3391 varied as indicated in FIG. 7. Signals are expressed as net relative luminescent units (RLU) calculated by subtracting the background RLU values of control reaction mixtures that lack CYP3A4 enzyme from the RLU values of the CYP3A4 reactions. The curve fit was performed with the program GraphPad Prism™.
# FIG. 7 illustrates the concentration dependence of the CYP3A4 reaction with compound 3391. […] The data fit well to a substrate inhibition model (R^2=0.99) described by the equation Y=(Vmax·X)/(Km+X+(X·X/Ki)), where X=substrate concentration, Y=activity in relative light units (RLU), Km=[…] and Ki=the substrate inhibition constant.
# CYP3A4 [5] = target: T1, CYP3A4
# Protocol: In FIGS. 3-6, CYP3A4 enzyme was co-expressed with cytochrome b5 and cytochrome P450 reductase in membrane fractions (Supersomes™). […] The reactions were initiated by addition of the NADPH regenerating system and incubated for 10 minutes at 37° C. After incubation, an equal volume (50 μl) of LDR was added and luminescence read 20 minutes later at room temperature on a Veritas™ luminometer. […] IC50 is the concentration of inhibitor that causes 50% inhibition of the reaction. Curve fits and IC50 calculations were performed with the program GraphPad Prism™.
# CYP3A4 [6] = target: T1, CYP3A4; settings: cited from earlier work
# T1 sequence (P08684 whole entry): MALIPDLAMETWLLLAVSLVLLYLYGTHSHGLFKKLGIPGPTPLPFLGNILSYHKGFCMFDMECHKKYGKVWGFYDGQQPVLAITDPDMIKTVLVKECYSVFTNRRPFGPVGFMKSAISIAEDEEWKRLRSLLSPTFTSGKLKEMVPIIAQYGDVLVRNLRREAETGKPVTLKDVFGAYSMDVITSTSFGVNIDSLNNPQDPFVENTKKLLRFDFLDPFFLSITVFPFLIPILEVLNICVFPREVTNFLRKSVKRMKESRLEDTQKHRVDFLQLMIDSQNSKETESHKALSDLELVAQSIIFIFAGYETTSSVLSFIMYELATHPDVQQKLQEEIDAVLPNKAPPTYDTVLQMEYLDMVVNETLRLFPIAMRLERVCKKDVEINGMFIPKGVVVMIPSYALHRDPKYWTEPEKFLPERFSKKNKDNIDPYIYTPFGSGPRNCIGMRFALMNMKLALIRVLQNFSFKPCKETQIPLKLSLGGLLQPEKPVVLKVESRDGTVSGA
smiles,measurement,setting,value
"O=C(O)[C@H]1CSC(c2nc3ccc(OCc4cccc(CN5CCN(c6ccccc6)CC5)c4)cc3s2)=N1 [luciferin-PPXE, (S)-2-(6-(3-((4-phenylpiperazin-1-yl)methyl)benzyloxy)benzo[d]thiazol-2-yl)-4,5-dihydrothiazole-4-carboxylic acid, reference compound]",signal/background (S/B) ratio,CYP3A4 [1],56
same,Km,CYP3A4 [2],25 µM
"O=C(O)[C@H]1CSC(c2nc3ccc(OCc4ccccc4)cc3s2)=N1 [luciferin-BE, (S)-2-(6-(benzyloxy)benzo[d]thiazol-2-yl)-4,5-dihydrothiazole-4-carboxylic acid, reference compound]",signal/background (S/B) ratio,CYP3A4 [1],55
same,Km,CYP3A4 [2],50 µM
CC(C)OC(OC(C)C)C1CSC(c2nc3ccc(O)cc3s2)=N1 (stereo not drawn) [compound 3391],fraction of compound oxidized during the incubation,"CYP3A4 [1]; 0.1 picomoles of CYP3A4, 10 minute incubation, 2 μM",less than 10%
same,signal/background (S/B) ratio,CYP3A4 [1],1699
same,time over which product accumulation with CYP3A4 is linear,CYP3A4 [1]; FIG. 20 conditions,at least 10 minutes
same,preference for CYP3A4 over CYP3A7,CYP3A7,48.5 fold
same,"selectivity ratio at 30 min, 50 μM",CYP3A4 versus CYP3A5,1.4
same,preference for CYP3A4 over CYP3A5,CYP3A5,8.0 fold
same,"selectivity ratio at 30 min, 50 μM",CYP3A4 versus CYP3A7,8.5
same,"selectivity/preference for the CYP3A subfamily (CYP3A4, CYP3A5, CYP3A7)","[3]; 50 μM, one picomole enzyme, 30 minutes at 37° C.",excellent selectivity
same,activities with the other P450 enzymes screened,"[3]; FIG. 20 conditions: 2 μM compound, 0.1 picomole P450, 10 minutes",negligible
same,substrate concentration at maximal rate,CYP3A4 [4]; FIG. 7,12.5 µM
same,Ki,"CYP3A4 [4]; substrate inhibition model fit, read-out: Ki (substrate inhibition constant)",171 µM
"O=C(O)[C@H]1CSC(c2nc3ccc(OC(F)(F)c4c(F)c(F)c(F)c(F)c4F)cc3s2)=N1 [luciferin-PFBE, (S)-2-(6-(perfluorobenzyloxy)-benzo[d]thiazol-2-yl)-4,5-dihydrothiazole-4-carboxylic acid, reference compound]",signal/background (S/B) ratio,CYP3A4 [1],92
same,Km,CYP3A4 [2],50 µM
Cc1ncc2n1-c1ccc(Cl)cc1C(c1ccccc1F)=NC2 [midazolam],effect on the CYP3A4/3391 reaction,CYP3A4 [5],inhibited
same,effect on CYP3A4 assay using luciferin-BE,CYP3A4 [6],inhibited
same,effect on CYP3A4 assay using luciferin-PFBE,CYP3A4 [6],inhibited
same,effect on CYP3A4 assay using luciferin-PPXE,CYP3A4 [6],inhibited
